Source: US5380729A, “12-hetero substituted 6,11-ethano-6,11-dihydrobenzo (b) quinolizinium salts and compositions and method of use thereof” (Sterling Winthrop Inc., priority 1993, dated 1995)

Legend:
[1] = test system: NMDA-induced neurotoxicity in cultured cortical neurons; experiment: Antagonism of NMDA-induced neurotoxicity in cultured neurons (LDH release); assay type: cell-based, mouse (Swiss-Webster); details: 500 μM NMDA, 30 minutes, LDH activity at 24 hours, mouse cortical neurons
Experimental: Antagonism of NMDA-induced Neurotoxicityin Cultured Neurons
Preparation of Cultured Cortical Neurons
Pregnant, Swiss-Webster mice were obtained from Taconic Farms (Germantown, New York) and sacrificed 16 days post conception. Fetuses were removed and placed in a sterile dish containing Hank's balanced salt solution (HBSS), pH 7.4. Brain cortices were dissected, meninges were removed, the tissue was minced and placed into a solution of HBSS containing 0.25% (w/v) trypsin at 37° C. for 15 minutes. Tissue was then triturated with a sterile pasteur pipet, diluted with minimal essential media (Gibco 330-1430), pH 7.4, supplemented with 10% horse serum, 10% fetal calf serum, 2 mM 1-glutamine, 21 mM d-glucose, 2.2 g/L sodium bicarbonate, 1000 u/ml penicillin, and 1,000 μg/ml streptomycin. Cells were plated onto Falcon primaria 96 well plates at a final density of 50,000 cells/well and incubated at 37° C. in the presence of 5% (v/v) carbon dioxide. After 5 days, plating media was replaced with maintenance media containing minimal essential media (Gibco 330- 1430), pH 7.4, supplemented with 10% horse serum, 10% 1-glutamine, 21 mM d-glucose, 2.2 g/l sodium bicarbonate,1,000 U/ml penicillin, 1,000 μg/ml streptomycin, and 10 μM cytosine arabinoside. On days 7 and 10, media was replaced with maintenance media as above lacking the cytosine arabinoside. Experiments were conducted on day 13.
Neuroprotection Assessment
Day 13 cultured cortical neurons were washed twice with minimal essential media, pH 7.4 and then exposed for 30 minutes to 500 μM N-methyl-D-aspartic acid (NMDA) with or without varying concentrations of test agents. Dizocilpine (MK-801) at a final concentration of 10 μM MK-801 was routinely included as a positive control. MK-801 and test agents were prepared in minimal essential media supplemented with 21 mM d-glucose and 2.2 g/L sodium bicarbonate (MEM). After 30 minutes, media was replaced with MEM alone. Exposure of neurons to test agents was limited to the NMDA treatment period. Twenty-four hours after removal of NMDA, an aliquot of media from each well was removed for assessment of cell injury by determining lactate dehydrogenase (LDH) activity by. the method of Wroblewski and LaDue Proc. Soc. Exp. Biol. Med. 1955, 90, 210-213. The results are expressed as an IC50 (in nM) value (concentration causing 50% inhibition) for the antagonism of NMDA--inducedneurotoxicity.

PCP recognition sites [2] = experiment: [3H]TCP Radioreceptor Assay (internal screen); assay type: binding, rat (male Sprague-Dawley; details: rat whole brain membranes, room temperature, 25 min; for Ki: ~1 nM [3H]TCP
Experimental: [^3 H]TCP Radioreceptor Assay (internal screen)
[^3 H]TCP binding to PCP recognition sites was performed as described by Vignon et al. Brain Research 1983, 280, 194°197. Male Sprague-Dawley rats were sacrificed by decapitation, and whole brains were homogenized in 10 volumes (wt/vol) of cold Tris-HCl buffer (50 mM, pH 7.7) using a Brinkmann Polytron (setting 6, 30 sec). The homogenate was centrifuged at 40,000×g for 10 min at 4° C. The supernatant was decanted, and the homogenization and centrifugation steps were repeated twice as described above. Following this, the pellet was resuspended in Tris-HCl (5 mM, pH 7.7) at a tissue concentration of 0.5°0.75 g/ml, and one ml aliquots were frozen at -70° C. until use. The binding characteristics for PCP recognition sites were not altered by the freezing of membrane suspensions.
On the day of the assay, membrane aliquots were thawed, resuspended in fresh 5 mM Tris-HCl buffer at a tissue concentration of 1 mg/ml, and stored on ice until use. Each assay tube contained 100 μl of [^3 H]TCP at a final concentration of approximately 1 nM, 100 μl of various concentrations of the compounds of interest, 500 μl of the tissue suspension and 300 of buffer to a final assay volume of 1 ml and a final protein concentration of 0.5 mg/tube. Non-specific binding was defined by addition of a final concentration of 100 μM PCP to blank tubes. All tubes were incubated at room temperature for 25 min before termination of the reaction by rapid filtration over Whatman GF/B glass fiber filters that had been presoaked in a solution of 0.5% polyethylenimine for at least 1 hr prior to use. Filters were washed with three 4 ml volumes of cold Tris buffer. Following addition of scintillation cocktail, the amount of bound radioactivity was determined by liquid scintillation spectrometry using a Beckman LS 5000TA liquid scintillation counter with an efficiency for tritium of approximately 55% . Inhibition constants (Ki values) were calculated using the EBDA/LIGAND program (McPherson, J. Pharmacol. Meth. 1985, 14, 213-228), purchased from Elsevier/Biosoft, Inc. Results are reported as Ki values or as a percent (%) inhibition of binding at 10

[3] = Comparison of separate enantiomers with the racemate (test not specified); details: (-)-enantiomer vs (+)-enantiomer or racemate
PCP recognition sites [4] = experiment: [3H]TCP Radioreceptor Assay (external screen); assay type: binding, rat (whole rat forebrain membranes); details: @ 10 μM; rat forebrain membranes; 25° C., 60 minutes
Experimental: Representative compounds of the invention were also tested in an external [^3 H]TCP radioreceptor assay using the following protocol:
[^3 H]TCP Radioreceptor Assay (external screen)
A procedure similar to that described above for the [^3 H]TCP radioreceptor assay (internal screen) was utilized except that the whole rat forebrain membranes were incubated at 25° C. for 60 minutes rather than at room temperature for 25 minutes, before termination of the reaction. The results are reported as a percent (%) inhibition of binding at 10 μM.

| Compound | IC50 [1] [nM] | Ki (PCP recognition sites [2]) [nM] | Percent inhibition, [3H]TCP (external screen) (PCP recognition sites [4]) [%] | also measured |
| --- | --- | --- | --- | --- |
| CCOC1(OCC)C2c3ccccc3C([n+]3ccccc32)C1(C)C (single isomer, unassigned; (-)) [Example 12(c), (-)-12,12-diethoxy-13,13-dimethyl-6,11-ethano-6,11-dihydrobenzo[b]quinolizinium chloride. 1/2-7/4 hydrate] | 26 |  |  | Ki (PCP recognition sites [2]; hydrate): 4.03 nM; potency compared to the (+)-enantiomer (Example 13(c)) or the racemate (Example 2) [3]: more potent; side effects compared to the (+)-enantiomer (Example 13(c)) or the racemate (Example 2) [3]: fewer side effects |
| CCOC1(OCC)CC2c3ccccc3C1(C)c1cccc[n+]12.[O-][Cl+3]([O-])([O-])[O-] (centres unmarked) [63(c), 11-Methyl-12,12-diethoxy-6,11-ethano-6,11-dihydrobenzo[b]quinolizinium perchlorate] |  | 9300 | 0 |  |
| CCOC1(OCC)C2c3c(C)ccc(C)c3C(C1C)[n+]1ccccc12.[O-][Cl+3]([O-])([O-])[O-] (centres unmarked) [63(e), 7,10-Dimethyl-12,12-diethoxy-13-methyl-6,11-ethano-6,11-dihydrobenzo[b]quinolizinium perchlorate] |  | 255 | 65 |  |
| CCOC1(OCC)CC2c3c(C)cccc3C1c1cccc[n+]12.[O-][Cl+3]([O-])([O-])[O-] (centres unmarked) [63(f), 7-Methyl-12,12-diethoxy-6,11-ethano-6,11-dihydrobenzo[b]quinolizinium perchlorate] |  | 7430 | 34 |  |
| CCOC1(OCC)CC2c3ccc(C)cc3C1c1cccc[n+]12.[O-][Cl+3]([O-])([O-])[O-] (centres unmarked) [63(g), 9-Methyl-12,12-diethoxy-6,11-ethano-6,11-dihydrobenzo[b]quinolizinium perchlorate] |  |  | 0 | Percent inhibition, [3H]TCP (internal screen) (PCP recognition sites [2]; @ 10 μM): 68% |
| CCOC1(OCC)CC2c3c(C)ccc(C)c3C1c1cccc[n+]12.[O-][Cl+3]([O-])([O-])[O-] (centres unmarked) [63(h), 7,10-Dimethyl-12,12-diethoxy-6,11-ethano-6,11-dihydrobenzo[b]quinolizinium perchlorate] |  |  | 52 |  |
| CCOC1(OCC)CC2c3cc(C)c(C)cc3C1c1cccc[n+]12.[O-][Cl+3]([O-])([O-])[O-] (centres unmarked) [63(i), 8,9-Dimethyl-12,12-diethoxy-6,11-ethano-6,11-dihydrobenzo[b]quinolizinium perchlorate] |  | 2260 | 35 |  |
| CCOC1(OCC)C2c3ccccc3C([n+]3ccccc32)C1(C)C (centres unmarked) [Example 2, 12,12-diethoxy-13,13-dimethyl-6,11-ethano-6,11-dihydrobenzo[b]quinolizinium chloride-1/4 H2 O] |  | 5.3 |  | IC50 ([1]; Cortical neurone): 30 to 50 nM |
| CCOC1(OCC)C2c3c(Br)cccc3C([n+]3ccccc32)C1(C)C.[O-][Cl+3]([O-])([O-])[O-] (centres unmarked) [Example 29, 6,11-ethano-12,12-diethoxy-13,13-dimethyl-10-bromo-6,11-dihydrobenzo[b]quinolizinium perchlorate] | 1040 | 132 |  |  |
| CCOC1(OCC)C2c3cc(Br)ccc3C([n+]3ccccc32)C1(C)C.[O-][Cl+3]([O-])([O-])[O-] (centres unmarked) [Example 35, 6,11-ethano-12,12-diethoxy-13,13-dimethyl-9-bromo-6,11-dihydrobenzo[b]quinolizinium perchlorate] | 173 | 61.5 |  |  |
| CCOC1(OCC)C2c3ccccc3C(C1C)[n+]1ccccc12.[O-][Cl+3]([O-])([O-])[O-] (centres unmarked) [Example 38, 6,11-ethano-12,12-diethoxy-13-methyl-6,11-dihydrobenzo[b]quinolizinium perchlorate] | 1160 | 33.8 |  |  |
| CCCOC1(OCCC)C2c3ccccc3C([n+]3ccccc32)C1(C)C.[O-][Cl+3]([O-])([O-])[O-] (centres unmarked) [Example 39, 6,11-ethano-12,12-dipropoxy-13,13-dimethyl-6,11-dihydrobenzo[b]quinolizinium perchlorate] | 85 | 11.5 |  |  |
| CCOC1(OCC)C2c3cc([N+](=O)[O-])ccc3C([n+]3ccccc32)C1(C)C.[O-][Cl+3]([O-])([O-])[O-] (centres unmarked) [Example 46, 6,11-ethano-12,12-diethoxy-13,13-dimethyl-9-nitro-6,11-dihydrobenzo[b]quinolizinium perchlorate] | 15300 | 2760 |  |  |
| CCOC1(OCC)C2(C)c3ccccc3C([n+]3ccccc32)C1(C)C.[O-][Cl+3]([O-])([O-])[O-] (centres unmarked) [Example 51, 6,11-ethano-12,12-diethoxy-13,13-dimethyl-11-methyl-6,11-dihydrobenzo[b]quinolizinium perchlorate] |  | 11.3 |  | IC50 ([1]; Cortical neurone): 32.4 nM |
